PubChem BioAssay (NCI)
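In this assay, cells in 96-well plates receive the compound at five concentrations for 48 hours. Endpoints are linearly interpolated between the surrounding concentrations. Abbreviation: GI50, concentration required for 50% inhibition of growth. Definition used: TGI = concentration required for complete inhibition of growth.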

Legend:
Assay in all cases: NCI-60 cell line screen, 48 h
[1] = tested on: HS 578T breast
[2] = tested on: MCF7 breast
[3] = tested on: RPMI-8226 leukemia
[4] = tested on: ACHN renal
[5] = tested on: SNB-75 CNS
[6] = tested on: NCI-H23 lung
[7] = tested on: A549 NSCLC
[8] = tested on: UACC-257 melanoma

Structure (SMILES) | TGI [1] | TGI [2] | TGI [3] | TGI [4] | TGI [5] | TGI [6] | TGI [7] | TGI [8] | GI50 [1] | GI50 [2] | GI50 [3] | GI50 [4] | GI50 [5] | GI50 [6] | GI50 [7] | GI50 [8]
O=C1CCc2cc(Br)ccc2O1 | > 100 µM | > 100 µM | > 100 µM | > 100 µM | 92.8 µM | > 100 µM | > 100 µM | > 100 µM |  |  |  |  |  |  |  | 
COc1ccc2c(c1)OCC1c3cc(OC)c4ccccc4c3OC21 (stereo not given) | 37 µM | > 100 µM | > 100 µM | > 100 µM | 47.9 µM | 43.2 µM | > 100 µM | > 100 µM | 11.3 µM | 3.59 µM | 10.6 µM | 27.4 µM | 11.8 µM | 4.88 µM | 15.8 µM | 35.5 µM
CCOC(=O)c1c(-c2ccccc2)n2c(=O)cc(C)c3c(O)c(O)cc1c32 | 56.6 µM | 13.4 µM | 17.9 µM | 43.1 µM | 88.1 µM | 37.5 µM | 24.6 µM | 28.7 µM | 14.7 µM | 3.28 µM | 3.98 µM | 5.94 µM | 8.95 µM | 6.06 µM | 5.46 µM | 6.38 µM
COc1cc2c(Nc3ccc(-c4ccc(N)cc4)cc3)ncnc2c(OC)c1OC | > 68 µM | > 100 µM | 41.4 µM | > 100 µM | 64.9 µM | > 100 µM | > 100 µM | > 100 µM | 11.5 µM | 3.54 µM | 3.78 µM | 1.76 µM | 16.6 µM | 19.5 µM | 2.68 µM | 4.58 µM
COc1cccc(C(=O)NNc2nc(Cl)nc(N3CCN(C(c4ccccc4)c4ccccc4)CC3)n2)c1 | 4.9 µM | > 100 µM | > 100 µM | 3.16 µM | 3.56 µM | 7.5 µM | 83.6 µM | 11.7 µM | 1.95 µM | 82.2 µM | > 100 µM | 1.76 µM | 1.51 µM | 2.7 µM | 22.1 µM | 3.06 µM
CCCCCc1cc(/C=C2/N=C(c3ccc[nH]3)C=C2OC)[nH]c1C | 0.0191 µM | 0.0988 µM |  | 0.113 µM | < 0.0124 µM | 0.346 µM | 1.19 µM | 0.855 µM |  |  |  |  |  |  |  | 
CCN1C(=O)/C(=c2\sc3n(c2=O)C2C(NN=3)N(CC)C(=O)N2CC)c2ccccc21 (stereo not given) | 31.6 µM | > 100 µM |  | > 47.9 µM | 0.856 µM | 17.6 µM | > 100 µM | > 100 µM | 0.341 µM | 0.357 µM | 0.366 µM | 0.726 µM | 0.189 µM | 0.808 µM | 0.795 µM | 22.4 µM
Cn1cc(-c2csc(-c3ccccc3)n2)c2cccnc21 | 35.5 µM | 33.8 µM | 98 µM | 52.3 µM | 97.6 µM | 38 µM | 38 µM | 44.4 µM | 11.8 µM | 12.6 µM | 14.3 µM | 17.1 µM | 23.5 µM | 16.2 µM | 16.9 µM | 21.1 µM
